Results on 17 molecules are retold here after publication PMC12155096 (International Journal of Molecular Sciences, 2025).

Where a name gives a salt, the structure may show the parent alone. Read-outs that look alike come from different tables or passages of the source.

In data set [1] the target is T1, human CYP2C19 (Homo sapiens, UniProt P33261). As to conditions: for CYP2C19 Efficacy (in parenthesis): human.
For data set [2], the target named is T2, human CYP2C9 (Homo sapiens, UniProt P11712). As to the kind of experiment: biochemical. The note with it: for IC50: CYP2C9 IC50 (half-maximal inhibitory concentration).
Data set [3] deals with T3, CYP3A4 (Homo sapiens, UniProt P08684). Briefly: biochemical.
For data set [4], the target named is T4, human CYP1A2 (Homo sapiens, UniProt P05177).
T4 sequence (P05177 1-516): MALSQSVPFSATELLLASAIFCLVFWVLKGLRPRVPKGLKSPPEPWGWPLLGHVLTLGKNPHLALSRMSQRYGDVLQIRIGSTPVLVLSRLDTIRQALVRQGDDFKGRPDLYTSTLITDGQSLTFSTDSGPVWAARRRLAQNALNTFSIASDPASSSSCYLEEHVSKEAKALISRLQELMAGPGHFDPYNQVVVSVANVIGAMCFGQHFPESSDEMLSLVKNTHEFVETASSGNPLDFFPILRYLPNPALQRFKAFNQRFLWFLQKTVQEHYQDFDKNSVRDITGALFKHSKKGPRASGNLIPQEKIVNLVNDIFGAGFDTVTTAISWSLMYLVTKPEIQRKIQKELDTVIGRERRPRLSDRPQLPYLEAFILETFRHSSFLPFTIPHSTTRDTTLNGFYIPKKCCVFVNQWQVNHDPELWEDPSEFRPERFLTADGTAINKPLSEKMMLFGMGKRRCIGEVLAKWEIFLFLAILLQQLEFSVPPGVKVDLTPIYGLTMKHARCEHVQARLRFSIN
As to conditions: for CYP1A2 Efficacy (in parenthesis): human.

For data set [5], the target named is T5, human CYP2D6 (Homo sapiens, UniProt P10635). The note with it: for CYP2D6 Efficacy (in parenthesis): human.
The target in data set [6] is T3, CYP3A4.
For data set [7], the target named is T5, human CYP2D6. As to the kind of experiment: biochemical. As to conditions: CYP2D6 IC50 (half-maximal inhibitory concentration).
In data set [8] the target is T1, human CYP2C19. Briefly: biochemical. The note with it: CYP2C19 IC50 (half-maximal inhibitory concentration).
In data set [9] the target is T2, human CYP2C9. As to conditions: human.
Data set [10] addresses Photinus pyralis (firefly) luciferase (Photinus pyralis, UniProt P08659). Briefly: biochemical. In kind it is biochemical.
Data set [11] addresses T4, human CYP1A2. As to the kind of experiment: biochemical. The note with it: CYP1A2 IC50 (half-maximal inhibitory concentration).
The mark [12] stands for this setting: CYP2C9 AC50 (half-maximal activity concentration).
Where [13] appears, read: CYP3A4 AC50 (half-maximal activity concentration).

T5 sequence (P10635 whole entry): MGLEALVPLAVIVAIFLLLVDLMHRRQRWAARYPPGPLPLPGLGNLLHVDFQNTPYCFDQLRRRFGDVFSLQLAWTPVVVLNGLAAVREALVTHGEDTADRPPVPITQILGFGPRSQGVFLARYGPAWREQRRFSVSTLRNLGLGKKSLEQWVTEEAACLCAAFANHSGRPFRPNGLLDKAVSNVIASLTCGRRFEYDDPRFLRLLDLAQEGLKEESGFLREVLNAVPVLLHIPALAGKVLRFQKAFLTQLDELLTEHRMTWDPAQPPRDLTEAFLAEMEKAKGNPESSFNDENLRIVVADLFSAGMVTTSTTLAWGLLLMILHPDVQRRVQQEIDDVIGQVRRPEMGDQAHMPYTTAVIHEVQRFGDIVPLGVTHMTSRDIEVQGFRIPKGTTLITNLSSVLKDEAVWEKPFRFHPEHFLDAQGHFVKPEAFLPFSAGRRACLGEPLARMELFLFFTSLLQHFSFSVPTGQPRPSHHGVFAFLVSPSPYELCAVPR
T1 sequence (P33261 whole entry): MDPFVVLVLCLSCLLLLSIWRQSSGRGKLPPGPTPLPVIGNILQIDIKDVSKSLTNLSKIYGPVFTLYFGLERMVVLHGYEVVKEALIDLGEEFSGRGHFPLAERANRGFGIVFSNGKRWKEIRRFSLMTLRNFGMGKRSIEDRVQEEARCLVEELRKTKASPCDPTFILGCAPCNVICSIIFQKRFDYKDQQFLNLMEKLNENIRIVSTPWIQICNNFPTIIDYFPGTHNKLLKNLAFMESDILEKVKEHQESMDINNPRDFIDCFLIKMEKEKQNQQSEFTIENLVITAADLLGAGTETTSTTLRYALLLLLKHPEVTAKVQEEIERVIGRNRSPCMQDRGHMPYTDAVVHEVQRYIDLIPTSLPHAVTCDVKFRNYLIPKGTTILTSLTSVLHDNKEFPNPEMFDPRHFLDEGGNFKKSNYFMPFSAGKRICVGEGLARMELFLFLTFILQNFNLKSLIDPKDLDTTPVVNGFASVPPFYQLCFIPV
T2 sequence (P11712 whole entry): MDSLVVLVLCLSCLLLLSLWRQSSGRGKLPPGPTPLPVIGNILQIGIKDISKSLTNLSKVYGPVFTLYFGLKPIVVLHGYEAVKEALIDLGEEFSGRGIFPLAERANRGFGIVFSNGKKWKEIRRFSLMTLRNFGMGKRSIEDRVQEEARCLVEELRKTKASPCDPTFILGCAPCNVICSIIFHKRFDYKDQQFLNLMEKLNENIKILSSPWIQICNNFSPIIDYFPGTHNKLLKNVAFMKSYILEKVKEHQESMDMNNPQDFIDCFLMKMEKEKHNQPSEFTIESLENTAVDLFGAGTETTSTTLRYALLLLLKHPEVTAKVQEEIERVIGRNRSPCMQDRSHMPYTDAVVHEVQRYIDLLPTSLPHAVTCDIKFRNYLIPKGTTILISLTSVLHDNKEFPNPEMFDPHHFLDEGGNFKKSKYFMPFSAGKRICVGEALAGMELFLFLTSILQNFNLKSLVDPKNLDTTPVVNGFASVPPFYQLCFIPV
T3 sequence (P08684 whole entry): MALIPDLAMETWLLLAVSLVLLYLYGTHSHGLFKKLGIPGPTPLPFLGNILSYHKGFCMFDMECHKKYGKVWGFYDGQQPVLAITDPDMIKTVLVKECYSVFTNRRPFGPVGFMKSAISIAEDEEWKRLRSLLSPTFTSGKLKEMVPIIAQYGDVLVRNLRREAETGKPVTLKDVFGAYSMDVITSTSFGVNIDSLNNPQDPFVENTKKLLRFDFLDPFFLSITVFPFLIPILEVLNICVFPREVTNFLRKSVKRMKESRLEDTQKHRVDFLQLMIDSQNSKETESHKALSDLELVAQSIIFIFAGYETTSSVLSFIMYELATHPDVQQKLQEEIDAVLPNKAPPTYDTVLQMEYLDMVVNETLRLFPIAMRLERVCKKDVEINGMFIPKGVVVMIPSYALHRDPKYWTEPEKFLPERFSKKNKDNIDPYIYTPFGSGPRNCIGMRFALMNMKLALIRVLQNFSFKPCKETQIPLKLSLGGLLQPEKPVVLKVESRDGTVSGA
Sequence of Photinus pyralis (firefly) luciferase (P08659 whole entry): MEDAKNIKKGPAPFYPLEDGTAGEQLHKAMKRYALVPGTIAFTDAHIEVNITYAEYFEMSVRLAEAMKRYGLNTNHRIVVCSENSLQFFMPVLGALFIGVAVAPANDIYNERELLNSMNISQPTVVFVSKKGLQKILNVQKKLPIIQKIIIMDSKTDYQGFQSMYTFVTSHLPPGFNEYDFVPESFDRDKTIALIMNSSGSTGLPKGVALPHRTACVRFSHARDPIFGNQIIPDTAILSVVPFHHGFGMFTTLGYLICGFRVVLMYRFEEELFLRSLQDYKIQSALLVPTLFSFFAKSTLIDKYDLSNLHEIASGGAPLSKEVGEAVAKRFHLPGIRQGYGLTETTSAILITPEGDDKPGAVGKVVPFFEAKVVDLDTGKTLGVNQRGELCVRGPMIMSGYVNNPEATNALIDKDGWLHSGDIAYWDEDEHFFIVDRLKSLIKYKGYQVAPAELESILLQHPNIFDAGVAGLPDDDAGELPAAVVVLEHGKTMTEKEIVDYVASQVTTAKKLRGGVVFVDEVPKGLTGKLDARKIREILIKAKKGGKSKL

For `CC(Oc1cc(Cl)c(Cl)cc1Cl)C(=O)O` (stereo not drawn) [2-(2,4,5-Trichlorophenoxy)propionic acid], in data set [1], the “CYP2C19 AC50 (half-maximal activity concentration)” value (“CYP2C19 AC50” below) was “Inactive”. The AC50 in data set [2] (setting [12]) came out at 28.4 µM; in data set [3] (setting [13]), 76.9 µM. Also, the “CYP1A2 AC50 (half-maximal activity concentration)” value (shortened to “CYP1A2 AC50”) in data set [4] is on record as “Inactive”. Further, the “CYP2D6 AC50 (half-maximal activity concentration)” value (“CYP2D6 AC50” for short) in [5] was “Inactive”.

In the case of `Fc1ccc(Oc2ccnc3cc(Cl)cc(Cl)c23)cc1` [Quinoxyfen], the “CYP2C19 Efficacy (in parenthesis)” value in data set [1] is listed as 13.35 ± 5.76 (-134 ± 20) %. For the same molecule, in data set [6], the “CYP3A4 IC50 (half-maximal inhibitory concentration)” value is on record as “Inactive”. Also, the IC50 in data set [7] was 37 µM; in [8], 13.3 µM; in data set [2], 23.2 µM; in data set [10], 59.2 µM; in [11], 0.53 µM. Moreover, the “CYP2C9 Efficacy (in parenthesis)” value in data set [9] is on record as 23.18 ± 7.46 (-103 ± 2) %. Also, in data set [4], the “CYP1A2 Efficacy (in parenthesis)” value is recorded as 0.53 ± 0.32 (-98 ± 2) %. Further, in [5], the “CYP2D6 Efficacy (in parenthesis)” value is given as 37.02 ± 2.51 (-71 ± 14) %.

Regarding `OC(c1ccc(Cl)cc1)(c1ccc(Cl)cc1)C(Cl)(Cl)Cl` [Dicofol], the “CYP2C19 Efficacy (in parenthesis)” value in data set [1] is reported as 0.29 ± 0.44 (-153 ± 1) %. The “CYP3A4 IC50 (half-maximal inhibitory concentration)” value in data set [6] is recorded as “Inactive”. The IC50 in data set [7] worked out at 44.8 µM; in data set [8], 0.29 µM; in data set [2], 4.89 µM; in [11], 8.5 µM. In addition, the “CYP2C9 Efficacy (in parenthesis)” value in data set [9] was 4.89 ± 4.11 (-104 ± 9) %. Further, in data set [10], the “Luciferase IC50 (half-maximal inhibitory concentration)” value is listed as “Inactive”. In addition, the “CYP1A2 Efficacy (in parenthesis)” value in data set [4] is listed as 8.5 ± 4.94 (-106 ± 9) %. The “CYP2D6 Efficacy (in parenthesis)” value in [5] is 44.8 ± 22.68 (-69 ± 14) %.

Take `C[C@@H]1O[C@@H](O[C@@H]2C=C3CC[C@@H]4[C@H](CC[C@]5(C)[C@@H](c6ccc(=O)oc6)CC[C@]45O)[C@@]3(C)CC2)[C@H](O)[C@H](O)[C@H]1O` [Proscillaridin]: the “CYP2C19 AC50” value in data set [1] was “Inconclusive activator”. The molecule further displayed an AC50 in data set [3] (setting [13]) of 33.4 µM. In data set [4], the “CYP1A2 AC50” value is “Inactive”. Also, in data set [5], the “CYP2D6 AC50” value is “Inactive”.

For `O=S(=O)(c1ccc(Cl)cc1)c1cc(Cl)c(Cl)cc1Cl` [Tetradifon], the “CYP2C19 Efficacy (in parenthesis)” value in data set [1] is listed as 0.27 ± 0.02 (-131 ± 10) %. Besides, the “CYP3A4 IC50 (half-maximal inhibitory concentration)” value in data set [6] is recorded as “Inactive”. For the same molecule, the IC50 was found to be 49.4 µM in data set [7], 0.27 µM in [8], 28.3 µM in [2] and 31.9 µM in data set [11]. Further, in [9], the “CYP2C9 Efficacy (in parenthesis)” value is on record as 28.26 ± 0 (-59 ± 2) %. Also, the “Luciferase IC50 (half-maximal inhibitory concentration)” value in [10] is reported as “Inactive”. Further, the “CYP1A2 Efficacy (in parenthesis)” value in [4] was 31.85 ± 3.66 (-38 ± 3) %. Further, the “CYP2D6 Efficacy (in parenthesis)” value in data set [5] is given as 49.42 ± 19.58 (-34 ± 2) %.

For `O=C(O)Cc1cc(I)c(Oc2cc(I)c(O)c(I)c2)c(I)c1` [Tetrac], the “CYP2C19 AC50” value in data set [1] is reported as “Inactive”. Also, the results for the AC50 in [2] and in [3] were 46.5 µM and 9.83 µM, respectively. Also, the “CYP1A2 AC50” value in data set [4] is reported as “Inactive”. In addition, the “CYP2D6 AC50” value in data set [5] is “Inactive”.

In the case of `O=C(O)c1ccccc1C(c1ccc(O)cc1)c1ccc(O)cc1` [Phenolphthalin], in data set [1], the “CYP2C19 AC50” value is given as “Inactive”. Besides, the figures for the AC50 in data set [2] (setting [12]) and in [3] (setting [13]) were 56.6 µM and 30.1 µM, respectively. For the same molecule, the “CYP1A2 AC50” value in data set [4] is “Inconclusive inhibitor”. Also, the “CYP2D6 AC50” value in [5] is on record as “Inactive”.

`Cc1cccc(Nc2ccccc2C(=O)O)c1C` [Mefenamic acid]: the “CYP2C19 AC50” value in [1] is “Inconclusive inhibitor”. Besides, the AC50 in data set [2] (setting [12]) came to 33 µM; in data set [3] (setting [13]) it was 73.9 µM. Moreover, the “CYP1A2 AC50” value in data set [4] was “Inconclusive inhibitor”. The “CYP2D6 AC50” value in [5] is on record as “Inactive”.

Turning to `C[C@]12C=CC(=O)C=C1CC[C@@H]1[C@@H]2CC[C@@]2(C)[C@H]1CC[C@]2(C)O` [Methandrostenolone], the “CYP2C19 AC50” value in [1] is “Inactive”. Moreover, the AC50 was 34.7 µM in data set [2] (setting [12]) and 2.65 µM in data set [3] (setting [13]). For the same molecule, in data set [4], the “CYP1A2 AC50” value is listed as “Inactive”. For the same molecule, the “CYP2D6 AC50” value in data set [5] is “Inactive”.

As to `Clc1ccc(C(c2ccc(Cl)cc2)C(Cl)Cl)cc1` [p,p'-DDD], in [1], the “CYP2C19 Efficacy (in parenthesis)” value is listed as 0.12 ± 0.06 (-136 ± 7) %. The “CYP3A4 IC50 (half-maximal inhibitory concentration)” value in data set [6] is listed as “Inactive”. For the same molecule, the IC50 in data set [7] is 59 µM; in data set [8] it was 0.12 µM; in [2], 5.55 µM; in data set [11] it was 6.46 µM. In addition, the “CYP2C9 Efficacy (in parenthesis)” value in [9] is on record as 5.55 ± 0.76 (-100 ± 3) %. For the same molecule, the “Luciferase IC50 (half-maximal inhibitory concentration)” value in data set [10] is reported as “Inactive”. Besides, the “CYP1A2 Efficacy (in parenthesis)” value in data set [4] is recorded as 6.46 ± 0.74 (-96 ± 1) %. Also, the “CYP2D6 Efficacy (in parenthesis)” value in data set [5] is reported as 59 ± 16.44 (-79 ± 23) %.

With `O=C(O)C(F)(F)C(F)(F)C(F)(F)C(F)(F)C(F)(F)C(F)(F)F` [Perfluoroheptanoic acid], the “CYP2C19 AC50” value in data set [1] is given as “Inactive”. Also, the AC50 in data set [2] (setting [12]) is 6.33 µM; in data set [3] (setting [13]), 65.8 µM. The “CYP1A2 AC50” value in data set [4] was “Inactive”. Further, in data set [5], the “CYP2D6 AC50” value is “Inactive”.

For `Cc1c(C(=O)NN2CCCCC2)nn(-c2ccc(Cl)cc2Cl)c1-c1ccc(Cl)cc1` [Rimonabant], the activity in data set [3] was half-maximal at 4.96 ± 0.93 µM (AC50). The “CYP1A2 AC50” value in data set [4] was “Inactive”.

The molecule `CC[C@H]1OC(=O)[C@H](C)[C@@H](O[C@H]2C[C@@](C)(OC)[C@@H](O)[C@H](C)O2)[C@H](C)[C@@H](O[C@@H]2O[C@H](C)C[C@H](N(C)C)[C@H]2O)[C@](C)(O)C[C@@H](C)C(=O)[C@H](C)[C@@H](O)[C@]1(C)O` [erythromycin, reference compound] had an IC50 in data set [3] (IC50 CYP3A4 assay) of 0.3 µM.

Consider `CCCC(Cn1cncn1)c1ccc(Cl)cc1Cl` (stereo not drawn) [Penconazole], for which, in data set [1], the “CYP2C19 Efficacy (in parenthesis)” value is listed as 0.14 ± 0.02 (-137 ± 5) %. The “CYP3A4 IC50 (half-maximal inhibitory concentration)” value in [6] is “Inactive”. For the same molecule, the IC50 in data set [7] amounted to 43.5 µM; in data set [8], 0.14 µM; in data set [2] it was 5.66 µM; in data set [11] it was 23.6 µM. Also, the “CYP2C9 Efficacy (in parenthesis)” value in [9] is given as 5.66 ± 0.65 (-101 ± 4) %. For the same molecule, the “Luciferase IC50 (half-maximal inhibitory concentration)” value in data set [10] was “Inactive”. For the same molecule, the “CYP1A2 Efficacy (in parenthesis)” value in data set [4] is on record as 23.57 ± 4.24 (-101 ± 7) %. For the same molecule, the “CYP2D6 Efficacy (in parenthesis)” value in [5] is on record as 43.51 ± 17.21 (-88 ± 16) %.

As for `Clc1ccccc1-c1ccccc1Cl` [2,2'-Dichlorobiphenyl], the “CYP2C19 AC50” value in data set [1] is listed as “Inconclusive activator”. For the same molecule, the figures for the AC50 in data set [2] (setting [12]) and in data set [3] (setting [13]) were 39 µM and 14.6 µM, respectively. The “CYP1A2 AC50” value in data set [4] is recorded as “Inconclusive inhibitor”. In data set [5], the “CYP2D6 AC50” value is “Inactive”.

As to `CN(C(=O)C(Cl)Cl)c1ccc(OC(=O)c2ccco2)cc1` [Diloxanide furoate], the “CYP2C19 AC50” value in [1] is reported as “Inconclusive inhibitor”. Besides, the AC50 in data set [2] (setting [12]) came out at 15.5 µM; in [3] (setting [13]), 25.3 µM. Moreover, in data set [4], the “CYP1A2 AC50” value is recorded as “Inactive”. In [5], the “CYP2D6 AC50” value is on record as “Inconclusive”.

For `CCCCCCCCCCOS(=O)(=O)O` [Sodium decyl sulfate], in [1], the “CYP2C19 AC50” value is reported as “Inactive”. Further, the values for the AC50 in [2] and in data set [3] were 38.5 µM and 85.8 µM, respectively. In addition, the “CYP1A2 AC50” value in [4] is reported as “Inactive”. For the same molecule, the “CYP2D6 AC50” value in data set [5] is “Inconclusive inhibitor”.

In general, AC50 refers to the midpoint of the concentration-response curve, whichever way the signal moves. As a reminder, the IC50 is the point on the concentration scale where inhibition reaches its midpoint. A low value points to higher potency.
